The test system of data set [1] is FLAP-mediated cellular LT formation in human neutrophils. Put plainly: FLAP-dependent 5-LO product formation in intact neutrophils. As to conditions: Neutrophil; for IC50: Homo sapiens, intact neutrophils challenged with 2.5 μM ionophore plus 20 μM arachidonic acid; for activity at 10 µM: 10 μM inhibitor, read-out: 5-LO product formation in neutrophils, remaining activity (% of control) at 10 μM; for activity at 10 µM / activity at 1 µM: human neutrophils, 2.5 μM Ca2+-ionophore A23187, means ± SEM, n = 4–5; for activity at 1 µM: 1 μM inhibitor, read-out: 5-LO product formation in neutrophils, remaining activity (% of control) at 1 μM. The data set is classed as cell-based. As to the method: Neutrophils were isolated from leukocyte concentrates obtained from freshly withdrawn peripheral blood of healthy adult male and female donors which were provided by the Institute of Transfusion Medicine, University Hospital Jena, Germany. The experimental protocol was approved by the ethical committee of the University Hospital Jena, and all methods were performed in accordance with the relevant guidelines and regulations. The leukocyte concentrates were mixed with dextran (from Leuconostoc spp. MW ∼40,000, Sigma Aldrich) for sedimentation of erythrocytes, and the supernatant was centrifuged on lymphocyte separation medium (Histopaque-1077, Sigma Aldrich). Contaminating erythrocytes in the pelleted neutrophils were removed by hypotonic lysis using distilled water. The neutrophils were washed twice in ice-cold PBS pH 7.4 and finally resuspended in PBS pH 7.4 plus 1 mg/mL glucose (PGC buffer).
Human neutrophils [5 × 10^6; in PGC buffer; incubation volume, 1 mL] were preincubated with 0.1% DMSO (vehicle) or with the compounds at 37 °C for 15 min. […] Samples were then subjected to solid-phase extraction on C18-columns (100 mg, UCT, Bristol, PA), and 5-LO products (LTB4 and its trans-isomers, and 5-H(p)ETE) were extracted and analyzed in the presence of internal standard PGB1 by RP-HPLC and UV detection as reported elsewhere.[45]

The target of data set [2] is T1, Human recombinant sEH (Homo sapiens, UniProt P34913).
T1 construct: made in house; host or cells: Sf9 insect cells, recombinant baculovirus from Dr. B. Hammock
T1 sequence (P34913 1-555): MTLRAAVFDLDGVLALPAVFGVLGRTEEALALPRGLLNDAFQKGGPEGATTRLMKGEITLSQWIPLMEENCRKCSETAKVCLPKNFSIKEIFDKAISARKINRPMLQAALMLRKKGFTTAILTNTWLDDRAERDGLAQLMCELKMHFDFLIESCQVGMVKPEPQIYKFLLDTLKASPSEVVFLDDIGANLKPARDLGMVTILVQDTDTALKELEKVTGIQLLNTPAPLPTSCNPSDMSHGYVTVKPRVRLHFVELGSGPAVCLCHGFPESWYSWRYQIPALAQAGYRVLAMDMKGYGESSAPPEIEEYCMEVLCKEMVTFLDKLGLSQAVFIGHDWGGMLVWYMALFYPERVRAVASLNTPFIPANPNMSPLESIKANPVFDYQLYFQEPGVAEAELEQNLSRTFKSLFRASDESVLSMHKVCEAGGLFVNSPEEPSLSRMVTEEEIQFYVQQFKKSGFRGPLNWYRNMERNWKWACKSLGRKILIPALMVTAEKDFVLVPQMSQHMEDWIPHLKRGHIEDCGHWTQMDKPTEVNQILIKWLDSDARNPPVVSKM
Put plainly: sEH cell-free fluorescence-based assay (PHOME substrate). As to conditions: means ± SEM, n = 3; for IC50: cell-free assay, human sEH; for remaining activity at 10 µM: residual activity at 10 μM, control = vehicle 100%. The data set is classed as biochemical. As to the method: Human recombinant sEH was expressed and purified as reported before.[46] In brief, Sf9 cells were infected with a recombinant baculovirus (kindly provided by Dr. B. Hammock, University of California, Davis, CA). Seventy-two hours post-transfection, cells were pelleted and sonicated (3 × 10 s at 4 °C) in lysis buffer containing NaHPO4 (50 mM, pH 8), NaCl (300 mM), glycerol (10%), EDTA (1 mM), phenylmethanesulfonyl fluoride (1 mM), leupeptin (10 μg/mL), and a soybean trypsin inhibitor (60 μg/mL). Supernatants after centrifugation at 100,000 × g (60 min, 4 °C) were subjected to benzylthio-sepharose-affinity chromatography in order to purify sEH by elution with 4-fluorochalcone oxide in PBS containing 1 mM DTT and 1 mM EDTA. Dialyzed and concentrated (Millipore Amicon-Ultra-15 centrifugal filter) enzyme solution was assayed for total protein with a Bio-Rad protein detection kit (Bio-Rad Laboratories, Munich, Germany), and the epoxide hydrolase activity was determined by using a fluorescence-based assay as described before.[47] Shortly, sEH was diluted in Tris buffer (25 mM, pH 7) supplemented with BSA (0.1 mg/mL) to an appropriate enzyme concentration and preincubated with test compounds or vehicle (0.1% DMSO) for 10 min at room temperature (RT). The reaction was started by the addition of 50 μM 3-phenyl-cyano(6-methoxy-2-naphthalenyl)methyl ester-2-oxiraneacetic acid (PHOME), a nonfluorescent compound that is enzymatically converted into fluorescent 6-methoxy-naphtaldehyde at RT. After 60 min, reactions were stopped by ZnSO4 (200 mM) and fluorescence was detected (λem 465 nm, λex 330 nm) using a NOVOstar microplate reader (BMG Labtech GmbH, Ortenberg, Germany), and potential fluorescence of test compounds was subtracted from the read-out, if required.

Molecules are shown by their SMILES. Values joined by “and” are separate entries in the source; they are usually repeats but may differ in a detail not shown here. Identical values can stand only once.

In general, melting point refers to the temperature of the solid-liquid transition. In general, IC50 refers to the concentration that inhibits the measured activity by half. The term remaining activity denotes the signal under treatment as a percentage of the control signal.

For `O=C(O)c1ccc2c(=O)n(-c3ccccc3)c(SCc3ccccc3Cl)nc2c1` [Compound 10, 2-((2-Chlorobenzyl)thio)-4-oxo-3-phenyl-3,4-dihydroquinazoline-7-carboxylic Acid], the melting point is 277.8 to 279.8 °C. In data set [1], the IC50 turned out to be 2.1 ± 0.4 µM and the activity at 10 µM worked out at 1.3 ± 0.3%.
Consider `CC(C)CNC(=O)c1ccc2c(=O)n(-c3ccccc3)c(SCc3ccccc3Cl)nc2c1` [Compound 12, N-Isobutyl-4-oxo-3-phenyl-2-((2-chlorobenzyl)thio)-3,4-dihydroquinazoline-7-carboxamide], for which the melting point was 230.8 to 232.7 °C. Further, the IC50 in data set [2] amounted to 7.4 ± 2.8 µM.
Compound `CC(C)NC(=O)c1ccc2c(=O)n(-c3ccccc3)c(SCc3ccc(C(F)(F)F)cc3)nc2c1` [Compound 13, N-Isopropyl-4-oxo-3-phenyl-2-((4-(trifluoromethyl)benzyl)thio)-3,4-dihydroquinazoline-7-carboxamide] came in with a melting point of 212.5 to 213.3 °C. In data set [2], the IC50 is about 10 µM and the remaining activity at 10 µM is 58.3%.
For `CC(C)CNC(=O)c1ccc2c(=O)n(-c3ccccc3)c(SCc3ccc(C(F)(F)F)cc3)nc2c1` [Compound 14, N-Isobutyl-4-oxo-3-phenyl-2-((4-(trifluoromethyl)benzyl)thio)-3,4-dihydroquinazoline-7-carboxamide], the melting point was 214.7 to 216.6 °C. Also, in data set [2], the IC50 stood at 4.5 ± 0.7 µM.
Regarding `COC(=O)c1cccc(CSc2nc3cc(C(=O)NCC(C)(C)C)ccc3c(=O)[nH]2)c1` [Compound 20, Methyl 3-(((7-(neopentylcarbamoyl)-4-oxo-3,4-dihydroquinazolin-2-yl)thio)methyl)benzoate], the melting point is 269.6 to 271.4 °C. In data set [2], the IC50 was over 10 µM and the remaining activity at 10 µM is 94.3%.
Turning to `CC(C)(C)CNC(=O)c1ccc2c(=O)[nH]c(SCc3cccc(C(=O)O)c3)nc2c1` [Compound 21, 3-(((7-(Neopentylcarbamoyl)-4-oxo-3,4-dihydroquinazolin-2-yl)thio)methyl)benzoic Acid], the melting point fell in the range of 250.6 to 252.6 °C. Also, in data set [2], the IC50 is about 10 µM and the remaining activity at 10 µM amounted to 51.9%.
On to `O=C(O)c1ccc2c(=O)[nH]c(SCc3ccccc3Cl)nc2c1` [Compound 22], for which the melting point was 280 °C (dec.). Moreover, in data set [1], the IC50 is about 10 µM, the activity at 1 µM was 102 ± 5.4% and the activity at 10 µM came to 50.3 ± 15.5%.
In turn, `CC(C)(C)CNC(=O)c1ccc2c(=O)[nH]c(SCc3ccccc3Cl)nc2c1` [Compound 34, 2-((2-Chlorobenzyl)thio)-N-neopentyl-4-oxo-3,4-dihydroquinazoline-7-carboxamide] returned a melting point of 238.4 to 239.8 °C. In data set [1], the IC50 came to 2.91 µM, the activity at 1 µM amounted to 84.5 ± 4.5% and the activity at 10 µM was 4.5 ± 1.2%. Further, in data set [2], the IC50 is 0.66 µM and 0.7 µM.
Compound `CC(C)(C)CNC(=O)c1ccc2c(=O)[nH]c(SCc3cccc(Cl)c3)nc2c1` [Compound 35, 2-((3-Chlorobenzyl)thio)-N-neopentyl-4-oxo-3,4-dihydroquinazoline-7-carboxamide] displayed a melting point of 217.1 to 218.4 °C. In data set [1], the concentration for half-maximal inhibition (IC50) was over 10 µM, the activity at 1 µM came out at 93.5 ± 11.4% and the activity at 10 µM was found to be 62.1 ± 12.2%. The concentration for half-maximal inhibition (IC50) in data set [2] is 0.3 ± 0.05 µM.
Consider `CC(C)(C)CNC(=O)c1ccc2c(=O)[nH]c(SCc3ccccc3F)nc2c1` [Compound 39, 2-((2-Fluorobenzyl)thio)-N-neopentyl-4-oxo-3,4-dihydroquinazoline-7-carboxamide], for which the melting point was in the range of 210.3 to 212.2 °C. In addition, the IC50 in data set [2] was 1.3 ± 0.1 µM.
In the same order, the values of `CC(C)(C)CNC(=O)c1ccc2c(=O)[nH]c(SCc3ccccc3C#N)nc2c1` [Compound 40, 2-((2-Cyanobenzyl)thio)-N-neopentyl-4-oxo-3,4-dihydroquinazoline-7-carboxamide] are 190.3 to 192.2 °C and 2.4 ± 0.3 µM.
For `Cc1ccccc1CSc1nc2cc(C(=O)NCC(C)(C)C)ccc2c(=O)[nH]1` [Compound 41, 2-((2-Methylbenzyl)thio)-N-neopentyl-4-oxo-3,4-dihydroquinazoline-7-carboxamide] the same measures were 207.4 to 209.4 °C and 1.2 ± 0.1 µM.
For `COc1ccccc1CSc1nc2cc(C(=O)NCC(C)(C)C)ccc2c(=O)[nH]1` [Compound 42, 2-((2-Methoxybenzyl)thio)-N-neopentyl-4-oxo-3,4-dihydroquinazoline-7-carboxamide], the melting point was 230.2 to 232.1 °C. Also, the IC50 in data set [2] was found to be 3.9 ± 2 µM.
For `CC(C)(C)CNC(=O)c1ccc2c(=O)[nH]c(SCc3ccccc3OC(F)(F)F)nc2c1` [Compound 43, 2-((2-(Trifluoromethoxy)benzyl)thio)-N-neopentyl-4-oxo-3,4-dihydroquinazoline-7-carboxamide] the same measures were 220.9 to 221.9 °C and 0.4 ± 0.1 µM.
`Cc1ncccc1CSc1nc2cc(C(=O)NCC(C)(C)C)ccc2c(=O)[nH]1` [Compound 44, 2-(((2-Methylpyridin-3-yl)methyl)thio)-N-neopentyl-4-oxo-3,4-dihydroquinazoline-7-carboxamide]: the melting point is 202.3 to 203.8 °C. The IC50 in data set [2] is 11 µM and 11.2 µM.
For `CC(C)CNC(=O)c1ccc2c(=O)[nH]c(SCc3ccc(C(F)(F)F)cc3)nc2c1` [Compound 46, 2-((4-(Trifluoromethyl)benzyl)thio)-N-isobutyl-4-oxo-3,4-dihydroquinazoline-7-carboxamide], the melting point fell in the range of 262.8 to 264.6 °C. In addition, the IC50 in data set [2] was 1.5 ± 0.2 µM.
For the compound `O=C(c1ccc2c(=O)[nH]c(SCc3ccccc3Cl)nc2c1)N1CCNCC1` [Compound 48, 2-((2-Chlorobenzyl)thio)-7-(piperazine-1-carbonyl)quinazolin-4(3H)-one], the melting point was 159.9 to 162 °C. In data set [2], the IC50 was over 10 µM and the remaining activity at 10 µM worked out at 105%.
`O=C(c1ccc2c(=O)[nH]c(SCc3ccccc3Cl)nc2c1)N1CCCCC1` [Compound 49] showed a melting point of 175.6 to 177.2 °C. Further, in data set [2], the concentration for half-maximal inhibition (IC50) was over 10 µM and the remaining activity at 10 µM was 58.5%.
In the same order, the values of `O=C(c1ccc2c(=O)[nH]c(SCc3ccccc3Cl)nc2c1)N1CCOCC1` [Compound 50, 2-((2-Chlorobenzyl)thio)-7-(morpholine-4-carbonyl)quinazolin-4(3H)-one] are 198.6 to 200.4 °C, over 10 µM and 77.7%.

Values taken from PMC9583330, “Quinazoline-4(3H)-one-7-carboxamide Derivatives as Human Soluble Epoxide Hydrolase Inhibitors with Developable 5-Lipoxygenase Activating Protein Inhibition” (ACS Omega, 2022).
